Assay results reported in US8772323B2, “Benzoxazole- and tetrahydrobenzoxazole-substituted pyridazinones as GPR119 agonists” (Boehringer Ingelheim International GmbH, priority 2010, dated 2014).
Structures can show the parent of a compound that is named as a salt.

Target: human GPR119 (Homo sapiens (Human), UniProt Q8TDV5)
Assay: AlphaScreen cAMP assay in Min-6/hGPR119 cells (GPR119 activation, intracellular cAMP)
Format: cell-based
Conditions: MIN6 cells stably transfected with human GPR119; 45 minutes' incubation at RT; AlphaScreen cAMP Assay Kit
Procedure, shortened: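 MIN6 cells stably expressing human GPR119 plated 10000 cells/well and held 24 h at 37° C. Compounds applied in stimulating buffer, pH 7.4, with 0.5 mM IBMX, 0.1% BSA, 1% DMSO final, for 45 min at RT. Intracellular cAMP read by AlphaScreen.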

Sequence of human GPR119 (Q8TDV5 whole entry): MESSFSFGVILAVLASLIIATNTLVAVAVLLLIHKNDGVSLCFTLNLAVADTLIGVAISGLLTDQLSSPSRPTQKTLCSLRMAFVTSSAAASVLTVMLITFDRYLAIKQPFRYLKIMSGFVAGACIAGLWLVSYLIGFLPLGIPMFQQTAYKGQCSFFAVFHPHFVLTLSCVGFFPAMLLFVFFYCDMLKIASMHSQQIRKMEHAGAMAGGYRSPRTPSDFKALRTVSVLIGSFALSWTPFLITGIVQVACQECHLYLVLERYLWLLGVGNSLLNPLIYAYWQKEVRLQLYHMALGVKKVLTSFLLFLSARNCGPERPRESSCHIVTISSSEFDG

In order of rising EC50:
1. CC[C@@H]1CC(=O)NN=C1c1ccc2nc(-c3ccc(OCCN(C(C)C)C(C)C)cc3)oc2c1 [Example 259, (R)-6-{2-[4-(2-diisopropylamino-ethoxy)-phenyl]-benzoxazol-6-yl}-5-ethyl-4,5-dihydro-2H-pyridazin-3-one]  22 nM
2. CCC[C@H]1C(=O)NN=C(c2ccc3nc(-c4ccc(OC(C)C)cc4)oc3c2)[C@@H]1C [Example 260, (4R,5R)-5-methyl-6-{2-[4-(propan-2-yloxy)phenyl]-1,3-benzoxazol-6-yl}-4-propyl-2,3,4,5-tetrahydropyridazin-3-one]  24 nM
3. CCC1CC(=O)NN=C1c1ccc2nc(-c3ccc(OCCN4C[C@@H](C)O[C@@H](C)C4)cc3)oc2c1 (stereo partly drawn) [Example 246, 6-(2-{4-[2-(cis-2,6-dimethyl-morpholin-4-yl)-ethoxy]-phenyl}-benzoxazol-6-yl)-5-ethyl-4,5-dihydro-2H-pyridazin-3-one]  54 nM
4. CCCN(CCOc1ccc(-c2nc3ccc(C4=NNC(=O)CC4CC)cc3o2)cc1)C(C)C (stereo not drawn) [Example 249, 5-ethyl-6-(2-{4-[2-(isopropyl-propyl-amino)-ethoxy]-phenyl}-benzoxazol-6-yl)-4,5-dihydro-2H-pyridazin-3-one]  58 nM
5. CCC1CC(=O)NN=C1c1ccc2nc(-c3ccc(OCCN4CCSCC4)cc3)oc2c1 (stereo not drawn) [Example 247, 5-ethyl-6-{2-[4-(2-thiomorpholin-4-yl-ethoxy)-phenyl]-benzoxazol-6-yl}-4,5-dihydro-2H-pyridazin-3-one]  62 nM
6. CCC1CC(=O)NN=C1c1ccc2nc(-c3ccc(OCC(C)(C)N4CCOCC4)cc3)oc2c1 (stereo not drawn) [Example 232, 5-ethyl-6-{2-[4-(2-methyl-2-morpholin-4-yl-propoxy)-phenyl]-benzoxazol-6-yl}-4,5-dihydro-2H-pyridazin-3-one]  69 nM
7. CC[C@@H]1CC(=O)NN=C1c1ccc2nc(-c3ccc(OCC(C)N4CCCCC4)cc3)oc2c1 (stereo partly drawn) [Example 237, 5(R)-ethyl-6-{2-[4-(2-piperidin-1-yl-propoxy)-phenyl]-benzoxazol-6-yl}-4,5-dihydro-2H-pyridazin-3-one]  73 nM
8. CC1CC(=O)NN=C1c1ccc2nc(-c3cccs3)oc2c1 (stereo not drawn) [Example 106, 5-methyl-6-(2-thiophen-2-yl-benzoxazol-6-yl)-4,5-dihydro-2H-pyridazin-3-one]  120 nM
9. CCC1CC(=O)NN=C1c1ccc2nc(-c3ccc(OC(C)(C)CN4CCOCC4)cc3)oc2c1 (stereo not drawn) [Example 231, 6-{2-[4-(1,1-dimethyl-2-morpholin-4-yl-ethoxy)-phenyl]-benzoxazol-6-yl}-5-ethyl-4,5-dihydro-2H-pyridazin-3-one]  120 nM
10. CCC1CC(=O)NN=C1c1ccc2nc(-c3ccc(OCCN4CCC(F)CC4)cc3)oc2c1 (stereo not drawn) [Example 248, 5-ethyl-6-(2-{4-[2-(4-fluoro-piperidin-1-yl)-ethoxy]-phenyl}-benzoxazol-6-yl)-4,5-dihydro-2H-pyridazin-3-one]  159 nM
11. CCCC1CCN(CCOc2ccc(-c3nc4ccc(C5=NNC(=O)CC5CC)cc4o3)cc2)CC1 (stereo not drawn) [Example 244, 5-ethyl-6-(2-{4-[2-(4-propyl-piperidin-1-yl)-ethoxy]-phenyl}-benzoxazol-6-yl)-4,5-dihydro-2H-pyridazin-3-one]  181 nM
12. CCC1CC(=O)NN=C1c1ccc2nc(-c3ccc(OC[C@@H]4CCCN4C(C)C)cc3)oc2c1 (stereo partly drawn) [Example 240, 5-ethyl-6-{2-[4-(1-isopropyl-5-pyrrolidin-2-yl-methoxy)-phenyl]-benzoxazol-6-yl}-4,5-dihydro-2H-pyridazin-3-one]  186 nM
13. CCC1CC(=O)NN=C1c1ccc2nc(-c3ccc(OC[C@H]4CCCN4C(C)C)cc3)oc2c1 (stereo partly drawn) [Example 241, 5-ethyl-6-{2-[4-(1-isopropyl-R-pyrrolidin-2-yl-methoxy)-phenyl]-benzoxazol-6-yl}-4,5-dihydro-2H-pyridazin-3-one]  191 nM
14. CCC1CC(=O)NN=C1c1ccc2nc(-c3ccc(OCCN4CCC(C)CC4)cc3)oc2c1 (stereo not drawn) [Example 243, 5-ethyl-6-(2-{4-[2-(4-methyl-piperidin-1-yl)-ethoxy]-phenyl}-benzoxazol-6-yl)-4,5-dihydro-2H-pyridazin-3-one]  197 nM
15. CCC1CC(=O)NN=C1c1ccc2nc(-c3ccc(OC[C@@H]4CCCN4C)cc3)oc2c1 (stereo partly drawn) [Example 242, 5-ethyl-6-{2-[4-(1-methyl-S-pyrrolidin-2-yl-methoxy)-phenyl]-benzoxazol-6-yl}-4,5-dihydro-2H-pyridazin-3-one]  296 nM
16. CCC1CC(=O)NN=C1c1ccc2nc(-c3ccc(OC(C)CO)cc3)oc2c1 (stereo not drawn) [Example 251, 5-ethyl-6-{2-[4-(2-hydroxy-1-methyl-ethoxy)-phenyl]-benzoxazol-6-yl}-4,5-dihydro-2H-pyridazin-3-one]  296 nM
17. CCC1CC(=O)NN=C1c1ccc2nc(-c3ccc(OC4CCCCCN4C)cc3)oc2c1 (stereo not drawn) [Example 234, 5-ethyl-6-{2-[4-(1-methyl-2-azepan-2-yloxy)-phenyl]-benzoxazol-6-yl}-4,5-dihydro-2H-pyridazin-3-one]  306 nM
18. CC1CC(=O)NN=C1c1ccc2nc(-c3ccco3)oc2c1 (stereo not drawn) [Example 108, 5-methyl-6-(2-furan-2-yl-benzoxazol-6-yl)-4,5-dihydro-2H-pyridazin-3-one]  346 nM
19. CCC1CC(=O)NN=C1c1ccc2nc(-c3ccc(OCC(C)(C)N4CCCC4)cc3)oc2c1 (stereo not drawn) [Example 229, 5-ethyl-6-(2-{4-[2-methyl-2-(pyrrolidin-1-yl)propoxy]phenyl}-1,3-benzoxazol-6-yl)-2,3,4,5-tetrahydropyridazin-3-one]  398 nM
20. CCC1CC(=O)NN=C1c1ccc2nc(-c3ccc(OCCN4CCC5(CCCCC5)CC4)cc3)oc2c1 (stereo not drawn) [Example 245, 6-(2-{4-[2-(3-aza-spiro[5.5]undec-3-yl)-ethoxy]-phenyl}-benzoxazol-6-yl)-5-ethyl-4,5-dihydro-2H-pyridazin-3-one]  434 nM
21. O=c1ccc(-c2ccc3nc(-c4cccs4)oc3c2)n[nH]1 [Example 257, 6-(2-thiophen-2-yl-benzoxazol-6-yl)-2H-pyridazin-3-one]  456 nM
22. CC[C@H]1CC(=O)NN=C1c1ccc2nc(-c3ccc(OCCN(C(C)C)C(C)C)cc3)oc2c1 [Example 258, (S)-6-{2-[4-(2-diisopropylamino-ethoxy)-phenyl]-benzoxazol-6-yl}-5-ethyl-4,5-dihydro-2H-pyridazin-3-one]  605 nM
23. CCC1CC(=O)NN=C1c1ccc2nc(-c3ccc(OCC4CCCCN4C)cc3)oc2c1 (stereo not drawn) [Example 233, 5-ethyl-6-{2-[4-(1-methyl-2-piperidin-2-yl-methoxy)-phenyl]-benzoxazol-6-yl}-4,5-dihydro-2H-pyridazin-3-one]  848 nM
24. CC[C@H]1CC(=O)NN=C1c1ccc2nc(-c3ccc(OCC(C)N4CCCCC4)cc3)oc2c1 (stereo partly drawn) [Example 236, 5(S)-ethyl-6-{2-[4-(2-piperidin-1-yl-propoxy)-phenyl]-benzoxazol-6-yl}-4,5-dihydro-2H-pyridazin-3-one]  1100 nM
25. CC1CC(=O)NN=C1c1ccc2nc(N3CCCCC3)oc2c1 (stereo not drawn) [Example 115, 5-methyl-6-(2-piperidin-1-yl-benzoxazol-6-yl)-4,5-dihydro-2H-pyridazin-3-one]  1130 nM
26. CCC1CC(=O)NN=C1c1ccc2nc(-c3cccc(OC(C)CN4CCCCC4)c3)oc2c1 (stereo not drawn) [Example 230, 5-ethyl-6-{2-[3-(1-methyl-2-piperidin-1-yl-ethoxy)-phenyl]-benzoxazol-6-yl}-4,5-dihydro-2H-pyridazin-3-one]  1190 nM
27. CC1CC(=O)NN=C1c1ccc2nc(-c3ccc(N)nc3)oc2c1 (stereo not drawn) [Example 109, 6-[2-(6-amino-pyridin-3-yl)-benzoxazol-6-yl]-5-methyl-4,5-dihydro-2H-pyridazin-3-one]  1410 nM
28. CCC1CC(=O)NN=C1c1ccc2nc(-c3ccc(OC[C@H]4CCCN4)cc3)oc2c1 (stereo partly drawn) [Example 239, 5-ethyl-6-(2-{4-[(2R)-pyrrolidin-2-ylmethoxy]phenyl}-1,3-benzoxazol-6-yl)-2,3,4,5-tetrahydropyridazin-3-one]  1650 nM
29. CC1CC(=O)NN=C1c1ccc2nc(N3CCSCC3)oc2c1 (stereo not drawn) [Example 113, 5-methyl-6-(2-thiomorpholin-4-yl-benzoxazol-6-yl)-4,5-dihydro-2H-pyridazin-3-one]  1900 nM
30. CCOC(=O)N1CCN(c2nc3ccc(C4=NNC(=O)CC4C)cc3o2)CC1 (stereo not drawn) [Example 114, ethyl 4-[6-(4-methyl-6-oxo-1,4,5,6-tetrahydro-pyridazin-3-yl)-benzoxazol-2-yl]-piperazine-1-carboxylate]  2290 nM
31. CCC1CC(=O)NN=C1c1ccc2nc(-c3ccc(OC[C@@H]4CCCN4)cc3)oc2c1 (stereo partly drawn) [Example 238, 5-ethyl-6-{2-[4-(S-pyrrolidin-2-yl-methoxy)-phenyl]-benzoxazol-6-yl}-4,5-dihydro-2H-pyridazin-3-one×HCl]  2950 nM
32. CC1CC(=O)NN=C1c1ccc2nc(-c3cccnc3)oc2c1 (stereo not drawn) [Example 110, 5-methyl-6-(2-pyridin-3-yl-benzoxazol-6-yl)-4,5-dihydro-2H-pyridazin-3-one]  4540 nM
33. Cc1cc(=O)[nH]nc1-c1ccc2nc(-c3ccc(C(=O)O)cc3)oc2c1 [Example 255, 4-[6-(4-methyl-6-oxo-1,6-dihydro-pyridazin-3-yl)-benzoxazol-2-yl]-benzoic acid]  7240 nM
34. COC(=O)c1cccc(-c2nc3ccc(-c4n[nH]c(=O)cc4C)cc3o2)c1 [Example 254, methyl 3-[6-(4-methyl-6-oxo-1,6-dihydro-pyridazin-3-yl)-benzoxazol-2-yl]-benzoate]  8950 nM
35. Cc1cc(=O)[nH]nc1-c1ccc2nc(-c3cccs3)oc2c1 [Example 256, 5-methyl-6-(2-thiophen-2-yl-benzoxazol-6-yl)-2H-pyridazin-3-one]  9380 nM

Test system: not given
Assay: not given
Conditions: not given

In order of rising melting point:
1. CC1CC(=O)NN=C1c1ccc2nc(-c3ccco3)oc2c1 (stereo not drawn) [Example 108, 5-methyl-6-(2-furan-2-yl-benzoxazol-6-yl)-4,5-dihydro-2H-pyridazin-3-one]  209 °C
2. CC1CC(=O)NN=C1c1ccc2nc(-c3cccnc3)oc2c1 (stereo not drawn) [Example 110, 5-methyl-6-(2-pyridin-3-yl-benzoxazol-6-yl)-4,5-dihydro-2H-pyridazin-3-one]  218 °C
3. CC1CC(=O)NN=C1c1ccc2nc(N3CCSCC3)oc2c1 (stereo not drawn) [Example 113, 5-methyl-6-(2-thiomorpholin-4-yl-benzoxazol-6-yl)-4,5-dihydro-2H-pyridazin-3-one]  218 °C
4. CC1CC(=O)NN=C1c1ccc2nc(-c3cccs3)oc2c1 (stereo not drawn) [Example 106, 5-methyl-6-(2-thiophen-2-yl-benzoxazol-6-yl)-4,5-dihydro-2H-pyridazin-3-one]  222 °C
5. CC1CC(=O)NN=C1c1ccc2nc(N3CCCCC3)oc2c1 (stereo not drawn) [Example 115, 5-methyl-6-(2-piperidin-1-yl-benzoxazol-6-yl)-4,5-dihydro-2H-pyridazin-3-one]  235 °C
6. CCOC(=O)N1CCN(c2nc3ccc(C4=NNC(=O)CC4C)cc3o2)CC1 (stereo not drawn) [Example 114, ethyl 4-[6-(4-methyl-6-oxo-1,4,5,6-tetrahydro-pyridazin-3-yl)-benzoxazol-2-yl]-piperazine-1-carboxylate]  239 °C
7. CC1CC(=O)NN=C1c1ccc2nc(-c3ccc(N)nc3)oc2c1 (stereo not drawn) [Example 109, 6-[2-(6-amino-pyridin-3-yl)-benzoxazol-6-yl]-5-methyl-4,5-dihydro-2H-pyridazin-3-one]  293 °C
